Test results from patent publication US20250197864A1, “LNCRNA TRANSCRIPTS IN MELANOMAGENESIS” (The Regents of the University of California, priority 2021, published 2025).

Key:
[1] = tested on: D04 melanoma cell line; assay: Cell viability assay (ATP quantitation); format: cell-based, human; conditions: 50 nM, 5 days (120 hrs), vs non-targeting control
Protocol: (§1) EsiRNA, siRNA and ASO GapmeRs were transfected in a final concentration of 50 nM unless mentioned otherwise and the transfection reagent Lipofectamine 3000 (2 ul/ml) was added according to the manufacturer's instructions.
(§2) Dependent on cell doubling time, 0.7-2×10^^3 cells were seeded in 96 well plates. 1 day after seeding cells were incubated in media with oligonucleotide concentration and/or MEKi and transfection reagent. 3 (synergy experiments) or 5 (solely ASO) days after transfection Total luminescence was measured on the SynergyHT plate reader (BioTek) using Gen5 software.

[2] = tested on: Caspase 3+7; assay: Caspase Glo 3/7 assay in D04 cell line; format: cell-based, human; conditions: ASO 50 nM, 1 day, vs control ASOs
Protocol: Dependent on cell doubling time, 2-3×10^^3 cells were seeded in 96 well plates. 1 day after seeding cells were incubated in media with 50 nM oligonucleotide concentration and transfection reagent. 1 day after transfection Total luminescence was measured on the SynergyHT plate reader (BioTek) using Gen5 software. Experiments were performed in quadruplicates.

[3] = tested on: AC004540.4 (TRASH) in D04 cells; assay: MEK-inhibitor-induced upregulation, RT-qPCR; format: cell-based, human; conditions: 72 hours, vs DMSO, normalized to GAPDH
Protocol: (§3) TRIzol, Phenol:chloroform:isoamyl alcohol (125:24:1) or NucleoSpin RNA kit (TaKaRa) was used for extracting Total RNA from cells and tissues according to the manufacturer's instructions. Total RNA was quantified by NanoDrop ND-1000 (Thermo Scientific) or Quibit 4 (Thermo Fisher). 50 ng or RNA was reverse transcribed using the cDNA synthesis and gDNA removal QuantiTect Reverse Transcription Kit. Real time PCR was performed using the iTaq Universal SYBR Green Supermix, 10 ng (20 ng for RIP Assay) of cDNA and on a QuantStudio™ 5 Real-Time PCR System or a 7500 fast real time PCR system. Relative gene expression was calculated using the comparative Ct method, normalized to GAPDH or β-actin. Primer sequences are listed in Supplementary Table 1.
(§4) Cells were either treated with trametinib (MEKi) or DMSO (control). Treatment period was 72 hours. CT-values were normalized to GAPDH, error bars represent standard deviation. All experiments were performed in triplicates (n=3/group). (FIG. 5b)

[4] = tested on: AC004540.4 (TRASH) in MM415 cells; assay: MEK-inhibitor-induced upregulation, RT-qPCR; format: cell-based, human; conditions: 72 hours, vs DMSO
Protocol: as §3, §4

[5] = tested on: Hs852.T primary melanoma cell line; assay: Cell viability assay (ATP quantitation); format: cell-based, human; conditions: 50 nM, 5 days (120 hrs), vs non-targeting control
Protocol: as §1, §2

[6] = tested on: MM415 melanoma cell line; assay: Cell viability assay (ATP quantitation); format: cell-based, human; conditions: 50 nM, 5 days (120 hrs), vs non-targeting control
Protocol: as §1, §2

[7] = tested on: Sk-Mel-2 melanoma cell line; assay: Cell viability assay (ATP quantitation); format: cell-based, human; conditions: 50 nM, 5 days (120 hrs), vs non-targeting control
Protocol: as §1, §2

[8] = tested on: Sk-Mel-28 melanoma cell line; assay: Cell viability assay (ATP quantitation); format: cell-based, human; conditions: 50 nM, 5 days (120 hrs), vs non-targeting control
Protocol: as §1, §2

[9] = tested on: VMM39 melanoma cell line; assay: Cell viability assay (ATP quantitation); format: cell-based, human; conditions: 50 nM, 5 days (120 hrs), vs non-targeting control
Protocol: as §1, §2

[10] = tested on: WM1366 melanoma cell line; assay: Cell viability assay (ATP quantitation); format: cell-based, human; conditions: 50 nM, 5 days (120 hrs), vs non-targeting control
Protocol: as §1, §2

[11] = tested on: WM3211 melanoma cell line; assay: Cell viability assay (ATP quantitation); format: cell-based, human; conditions: 50 nM, 5 days (120 hrs), vs non-targeting control
Protocol: as §1, §2

[12] = tested on: WM3629 melanoma cell line; assay: Cell viability assay (ATP quantitation); format: cell-based, human; conditions: 50 nM, 5 days (120 hrs), vs non-targeting control
Protocol: as §1, §2

[13] = tested on: A-172 Glioblastoma cell line; assay: Cell viability assay (ATP quantitation); format: cell-based; conditions: 50 nM, 5 days, vs non-targeting control
Protocol: as §1, §2

[14] = tested on: H1299 lung cancer cell line; assay: Cell viability assay (ATP quantitation); format: cell-based; conditions: 50 nM, 5 days, vs non-targeting control
Protocol: as §1, §2

[15] = tested on: H929 multiple myeloma cell line; assay: Cell viability assay (ATP quantitation); format: cell-based; conditions: 50 nM, 5 days, vs non-targeting control
Protocol: as §1, §2

[16] = tested on: HCT116 colon carcinoma cell line; assay: Cell viability assay (ATP quantitation); format: cell-based; conditions: 50 nM, 5 days, vs non-targeting control
Protocol: as §1, §2

[17] = tested on: L363 multiple myeloma cell line; assay: Cell viability assay (ATP quantitation); format: cell-based; conditions: 50 nM, 5 days, vs non-targeting control
Protocol: as §1, §2

[18] = tested on: MM485 melanoma cell line; assay: Cell viability assay (ATP quantitation); format: cell-based; conditions: 50 nM, 5 days, vs non-targeting control
Protocol: as §1, §2

[19] = tested on: SW1271 lung cancer cell line; assay: Cell viability assay (ATP quantitation); format: cell-based; conditions: 50 nM, 5 days, vs non-targeting control
Protocol: as §1, §2

[20] = tested on: SW480 colon carcinoma cell line; assay: Cell viability assay (ATP quantitation); format: cell-based; conditions: 50 nM, 5 days, vs non-targeting control
Protocol: as §1, §2

[21] = tested on: Sk-Mel-5 melanoma cell line; assay: Cell viability assay (ATP quantitation); format: cell-based; conditions: 50 nM, 5 days, vs non-targeting control
Protocol: as §1, §2

[22] = tested on: Sk-N-AS Neuroblastoma cell line; assay: Cell viability assay (ATP quantitation); format: cell-based; conditions: 50 nM, 5 days, vs non-targeting control
Protocol: as §1, §2

[23] = tested on: T98G Glioblastoma cell line; assay: Cell viability assay (ATP quantitation); format: cell-based; conditions: 50 nM, 5 days, vs non-targeting control
Protocol: as §1, §2

[24] = tested on: U138-MG Glioblastoma cell line; assay: Cell viability assay (ATP quantitation); format: cell-based; conditions: 50 nM, 5 days, vs non-targeting control
Protocol: as §1, §2

[25] = tested on: U20S osteosarcoma cell line; assay: Cell viability assay (ATP quantitation); format: cell-based; conditions: 50 nM, 5 days, vs non-targeting control
Protocol: as §1, §2

[26] = tested on: U87-MG Glioblastoma cell line; assay: Cell viability assay (ATP quantitation); format: cell-based; conditions: 50 nM, 5 days, vs non-targeting control
Protocol: as §1, §2

[27] = tested on: WM3060 melanoma cell line; assay: Cell viability assay (ATP quantitation); format: cell-based; conditions: 50 nM, 5 days, vs non-targeting control
Protocol: as §1, §2

[28] = tested on: D04RM trametinib resistant melanoma cell line; assay: Cell viability assay (ATP quantitation); format: cell-based; conditions: 50 nM, 5 days, vs non-targeting control
Source text: (§5) Human melanoma cell line VMM39 was purchased from American Type Culture Collection (ATCC). Human melanoma cell lines D04, MM415, WM1366, WM3629, WM3211, Sk-Mel-2 and Sk-Mel-28 were a generous gift from Boris Bastian at the University of California, San Francisco. Primary human melanoma cell line Hs852.T was purchased from the Cell Culture Core Facility (CCCF) at the University of California, San Francisco. Primary human melanoma cell line AV5 was obtained from metastasis of a melanoma patient. All experimental protocols were approved by UCSF Human Research Protection Program Institutional Review Board (IRB #12-0948), all patients signed informed consent, and methods were carried out in accordance with relevant guidelines and regulations. Resistant cell lines DO4RM, MM415RM, Sk-Mel-2RM and WM3629RM were established as previously described. [Sanlorenzo, M. et al., The lincRNA MIRAT binds to IQGAPI and modulates the MAPK pathway in NRAS mutant melanoma. Sci Rep 8, 10902 (2018).] Primary human melanocytic cell lines (PHM) from infant foreskin of five healthy donors were available in our cell repository and pooled. Melanoma cell lines were maintained in RPMI 1640 media supplemented with 10% (vol/vol) heat inactivated fetal bovine serum. Melanocytes were maintained in M254 medium with HMGS supplements (1× final solution). All cell lines were incubated at 37° C. under 5% CO2.
as §1, §2

[29] = tested on: MM415RM trametinib resistant melanoma cell line; assay: Cell viability assay (ATP quantitation); format: cell-based; conditions: 50 nM, 5 days, vs non-targeting control
Source text: as §5, §1, §2

[30] = tested on: Sk-Mel-2-RM trametinib resistant melanoma cell line; assay: Cell viability assay (ATP quantitation); format: cell-based; conditions: 50 nM, 5 days, vs non-targeting control
Source text: as §5, §1, §2

[31] = tested on: WM3629RM trametinib resistant melanoma cell line; assay: Cell viability assay (ATP quantitation); format: cell-based; conditions: 50 nM, 5 days, vs non-targeting control
Source text: as §5, §1, §2

[32] = tested on: AV5 primary melanoma cell line; assay: Cell viability assay (ATP quantitation); format: cell-based, human; conditions: 50 nM, 5 days (120 hrs), vs non-targeting control
Protocol: as §1, §2

[33] = tested on: H82 lung cancer cell line; assay: Cell viability assay (ATP quantitation); format: cell-based; conditions: 50 nM, 5 days, vs non-targeting control
Protocol: as §1, §2

Row | Compound | cell viability decrease [1] | cell viability decrease [5] | cell viability decrease [6] | cell viability decrease [7] | cell viability decrease [8] | cell viability decrease [9] | cell viability decrease [10] | cell viability decrease [11] | cell viability decrease [12] | cell viability decrease [13] | cell viability decrease [14] | cell viability decrease [15] | cell viability decrease [16] | cell viability decrease [17] | cell viability decrease [18] | cell viability decrease [19] | cell viability decrease [20] | cell viability decrease [21] | cell viability decrease [22] | cell viability decrease [23] | also measured
1 | GACCGTAGTTAGAAGG (GapmeR, chemically modified, pattern not given here) [SEQ ID NO: 48, GapmeR antisense oligonucleotide targeting HNRNPA2/B1] | significant cell viability decrease | – | – | – | – | – | – | – | – | – | – | – | – | – | – | – | – | – | – | – | cell viability decrease ([1]; listed as hnRNPA2/B1i): significant cell viability decrease; Caspase-3 &-7 activity increase [2]: 1.7 fold
2 | CC(=O)Nc1cccc(-n2c(=O)n(C3CC3)c(=O)c3c(Nc4ccc(I)cc4F)n(C)c(=O)c(C)c32)c1 [trametinib] | – | – | – | – | – | – | – | – | – | – | – | – | – | – | – | – | – | – | – | – | AC004540.4 (TRASH) upregulation ([3]; 20 nM MEKi): 3.2 fold; AC004540.4 (TRASH) enrichment ([3]; 40 nM MEKi): 5.4 fold; increase of AC004540.4 (TRASH)-expression ([4]; 20 nM MEKi): 0.31 fold; increase of AC004540.4 (TRASH)-expression ([4]; second MEKi concentration (not given)): 0.36 fold
3 | GATCATTTAATTTGAC (QIAGEN GapmeR, modification pattern not given here) [SEQ ID NO: 18, Antisense oligonucleotide targeting RP11-7011.3-001, 002 and 003] | significant cell viability decrease | significant cell viability decrease | significant cell viability decrease | significant cell viability decrease | significant cell viability decrease | significant cell viability decrease | significant cell viability decrease | significant cell viability decrease | significant cell viability decrease | significant cell viability decrease | significant cell viability decrease | significant cell viability decrease | significant cell viability decrease | significant cell viability decrease | significant cell viability decrease | significant cell viability decrease | significant cell viability decrease | significant cell viability decrease | significant cell viability decrease | significant cell viability decrease | cell viability decrease [24]: significant cell viability decrease; cell viability decrease [25]: significant cell viability decrease; cell viability decrease [26]: significant cell viability decrease; cell viability decrease [27]: significant cell viability decrease; cell viability decrease [28]: significant cell viability decrease; cell viability decrease [29]: significant cell viability decrease; cell viability decrease [30]: significant cell viability decrease; cell viability decrease [31]: significant cell viability decrease
4 | ATCATCTGGATTAGTG (chemistry not given here) [SEQ ID NO: 14, Antisense oligonucleotide targeting BX470102.3-008] | significant cell viability decrease | significant cell viability decrease | significant cell viability decrease | significant cell viability decrease | significant cell viability decrease | significant cell viability decrease | significant cell viability decrease | significant cell viability decrease | significant cell viability decrease | significant cell viability decrease | significant cell viability decrease | significant cell viability decrease | significant cell viability decrease | significant cell viability decrease | significant cell viability decrease | significant cell viability decrease | significant cell viability decrease | significant cell viability decrease | significant cell viability decrease | significant cell viability decrease | cell viability decrease [32]: significant cell viability decrease; cell viability decrease [33]: significant cell viability decrease; cell viability decrease [24]: significant cell viability decrease; cell viability decrease [25]: significant cell viability decrease; cell viability decrease [26]: significant cell viability decrease; cell viability decrease [27]: significant cell viability decrease; cell viability decrease [28]: significant cell viability decrease; cell viability decrease [29]: significant cell viability decrease; cell viability decrease [30]: significant cell viability decrease; cell viability decrease [31]: significant cell viability decrease
